From patent publication EP4603105A1, “PHARMACEUTICAL COMPOSITION CONTAINING CYCLIC COMPOUND HAVING SELECTIVE KRAS INHIBITORY EFFECT AGAINST HRAS AND NRAS” (CHUGAI SEIYAKU KABUSHIKI KAISHA, priority 2022, dated 2024)
Where a SMILES comes first, the peptide text is derived from it. Bridges are numbered along the chain shown (N, C = ends). [ ]: non-standard residue; d: D form. The star is where a group is joined. hPhe(3-Cl-4-CF3) = N[C@@H](CCc1ccc(C(F)(F)F)c(Cl)c1)C(=O)O; NPrPhe(4-CF3) = CCCN[C@@H](Cc1ccc(C(F)(F)F)cc1)C(=O)O; NMeGly(cPent) = CN[C@H](C(=O)O)C1CCCC1; Hyp = O=C(O)[C@@H]1C[C@@H](O)CN1; NMeD = CN[C@@H](CC(=O)O)C(=O)O; NMeL = CN[C@@H](CC(C)C)C(=O)O; Morpholide = C1CN(*)CCO1; Ac5c = NC1(C(=O)O)CCCC1; Aze = O=C(O)[C@@H]1CCN1; Ac4c = NC1(C(=O)O)CCC1; NPrGly = CCCNCC(=O)O; Sar = CNCC(=O)O

Legend:
[1] = target: GDP-bound NRAS wild-type protein (Homo sapiens, UniProt P01111); test: Binding to NRAS by surface plasmon resonance (SPR), KD and KD ratio to KRAS
How it was run: (§1)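 GDP-loaded biotinylated Avi-tag RAS proteins (E. coli-expressed) captured on a Biotin CAPture chip at ~100–300 RU; single-cycle kinetics at 30°C, 100 µL/min, 75 s injections of rising compound concentrations. HBS pH 7.4 running buffer with 1 mM DTT, 10 mM MgCl2, 10 µM GDP, 4% DMSO. KD from 1:1 binding fit.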

[2] = target: HRAS wild-type protein (Homo sapiens, UniProt P01112); test: Binding to HRAS by surface plasmon resonance (SPR), KD and KD ratio to KRAS
How it was run: as §1

[3] = test system: human lung cancer strain NCI-H441; format: cell-based
How it was run: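 Readout: […] after the ATP-based reagent. Compound: serial dilutions in dimethyl sulfoxide.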

[4] = ratio of KD value for GDP-bound NRAS wild-type protein to KD value for KRAS (SPR)
[5] = ratio of KD value for HRAS wild-type protein to KD value for KRAS (SPR)
[6] = ratio of the KD value with respect to GDP-bound NRAS wild-type protein to the KD value with respect to KRAS
[7] = ratio of the KD value with respect to HRAS wild-type protein to the KD value with respect to KRAS
[8] = ratio of KD for GDP-bound NRAS wild-type protein to KD for KRAS
[9] = ratio of KD for HRAS wild-type protein to KD for KRAS

HRAS wild-type protein, sequence (P01112 whole entry): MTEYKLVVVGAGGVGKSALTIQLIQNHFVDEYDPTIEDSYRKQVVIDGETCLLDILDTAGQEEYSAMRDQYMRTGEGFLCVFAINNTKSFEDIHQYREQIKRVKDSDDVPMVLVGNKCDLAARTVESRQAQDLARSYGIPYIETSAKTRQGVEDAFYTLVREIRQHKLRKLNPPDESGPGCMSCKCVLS
GDP-bound NRAS wild-type protein, sequence (P01111 whole entry): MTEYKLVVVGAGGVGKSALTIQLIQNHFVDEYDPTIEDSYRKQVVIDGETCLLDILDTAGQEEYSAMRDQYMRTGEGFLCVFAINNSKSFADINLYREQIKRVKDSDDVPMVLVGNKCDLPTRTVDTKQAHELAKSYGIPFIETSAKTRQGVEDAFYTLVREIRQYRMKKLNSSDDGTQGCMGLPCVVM

IC50 [3]	Compound	NRAS /KRAS [1, 4]	HRAS /KRAS [2, 5]	NRAS /KRAS [1, 6]	HRAS /KRAS [2, 7]	NRAS /KRAS [1, 8]	HRAS /KRAS [2, 9]
0.003 µM	CCO[C@@H]1C[C@H]2C(=O)NC3(CC(C)(C)C3)C(=O)N(C)[C@@H](C3CCCC3)C(=O)N(C)[C@H](C(=O)N(C)CC)CC(=O)N(C)[C@@H](COC)C(=O)N[C@@H]([C@@H](C)CC)C(=O)N(C)CC(=O)N(C)[C@H]3C/C=C\CCN(C3=O)[C@@H](Cc3ccc(C(F)(F)F)cc3)C(=O)N(C)CC(=O)N[C@@H](CCc3cc(F)c(C(F)(F)F)c(F)c3)C(=O)N2C1 [PP1671]	A (a compound having 10 or more and less than 20 is denoted as A)	A (a compound having 10 or more and less than 20 is denoted as A)	–	–	–	–
0.0105 µM	CCCN(C)C(=O)[C@@H]1CC(=O)N(C)[C@@H](CC(F)F)C(=O)N[C@@H]([C@@H](C)CC)C(=O)N(C)CC(=O)N(C)[C@H]2C/C=C\CCN(C2=O)[C@@H](Cc2ccc(C(F)(F)F)cc2)C(=O)N(C)CC(=O)N[C@@H](CCc2cc(F)c(C(F)(F)F)c(F)c2)C(=O)N2C[C@@H](C)C[C@H]2C(=O)NC2(CC(C)(C)C2)C(=O)N(C)[C@@H](C2CCCC2)C(=O)N1C [PP2040]	–	–	A (a compound having 10 or more and less than 20 is denoted as A)	A (a compound having 10 or more and less than 20 is denoted as A)	–	–
0.0187 µM	CCO[C@@H]1C[C@H]2C(=O)NC3(CC(C)(C)C3)C(=O)N(C)[C@@H](C(CC)CC)C(=O)N(C)[C@H](C(=O)N(C)C)CC(=O)N(C)[C@@H](CC3CC3)C(=O)N[C@@H]([C@@H](C)CC)C(=O)N(C)CC(=O)N(C)[C@H]3C/C=C\CCN(C3=O)[C@@H](Cc3ccc(C(F)(F)F)cc3)C(=O)N(C)CC(=O)N[C@@H](CCc3ccc(C(F)(F)F)c(Cl)c3)C(=O)N2C1 [PP2124]	–	–	AA (a compound having 20 or more is denoted as AA)	A (a compound having 10 or more and less than 20 is denoted as A)	–	–
0.0247 µM	CCCN1C(=O)[C@@H]2CCN2C(=O)CN(C)C(=O)[C@H]([C@@H](C)CC)NC(=O)[C@H](CC(C)C)N(C)C(=O)C[C@@H](C(=O)N2CCOCC2)NC(=O)[C@H](C2CCCC2)N(C)C(=O)C2(CCC2)NC(=O)[C@@H]2C[C@@H](OCC)CN2C(=O)[C@H](CCc2ccc(C(F)(F)F)c(Cl)c2)NC(=O)CN(C)C(=O)[C@@H]1Cc1ccc(C(F)(F)F)cc1 [PP0354] ([NMeL]I[Sar][Aze][NPrPhe(4-CF3)][Sar][hPhe(3-Cl-4-CF3)][Hyp](Et)[Ac4c][NMeGly(cPent)]D-Morpholide; lactam N-11)	–	–	–	–	C (A compound having a KD ratio of 0.1 or more and less than 3 is denoted as C)	B (a compound having 3 or more and less than 10 is denoted as B)
0.0621 µM	CCO[C@@H]1C[C@H]2C(=O)NC3(CC(C)(C)C3)C(=O)N(C)[C@@H](C(CC)CC)C(=O)N(C)[C@H](C(=O)N3CCCC3)CC(=O)N(C)[C@@H](C)C(=O)N[C@@H]([C@@H](C)CC)C(=O)N(C)CC(=O)N(C)[C@H]3C/C=C\CCN(C3=O)[C@@H](Cc3ccc(C)cc3)C(=O)N(C)CC(=O)N[C@@H](CCc3ccc(C(F)(F)F)c(OC)c3)C(=O)N2C1 [PP2169]	–	–	AA (a compound having 20 or more is denoted as AA)	A (a compound having 10 or more and less than 20 is denoted as A)	–	–
0.0179 µM	CCO[C@@H]1C[C@H]2C(=O)NC3(CCC3)C(=O)N(C)[C@@H](C3CCCC3)C(=O)N(C)[C@H](C(=O)N3CCC3)CC(=O)N(C)[C@@H](CC)C(=O)N[C@@H]([C@@H](C)CC)C(=O)N(C)CC(=O)N(C)[C@H]3C/C=C\CCN(C3=O)[C@@H](Cc3ccc(C(F)(F)F)cc3)C(=O)N(C)CC(=O)N[C@@H](CCc3cc(F)c(C(F)(F)F)c(F)c3)C(=O)N2C1 [PP1091]	–	–	–	–	A (a compound having 10 or more and less than 20 is denoted as A)	B (a compound having 3 or more and less than 10 is denoted as B)
0.0035 µM	CCO[C@@H]1C[C@H]2C(=O)N(C)C3(CCCC3)C(=O)N(C)[C@@H](C3CCCC3)C(=O)N(C)[C@H](C(=O)N(C)C)CC(=O)N(C)[C@@H](CC)C(=O)N[C@@H]([C@@H](C)CC)C(=O)N(C)CC(=O)N(C)[C@H]3C/C=C\CCN(C3=O)[C@@H](Cc3ccc(C(F)(F)F)cc3)C(=O)N(C)CC(=O)N[C@@H](CCc3cc(F)c(C(F)(F)F)c(F)c3)C(=O)N2C1 [PP1804]	A (a compound having 10 or more and less than 20 is denoted as A)	A (a compound having 10 or more and less than 20 is denoted as A)	–	–	–	–
0.0382 µM	CCCN1CC(=O)NC2(CCCC2)C(=O)N(C)[C@@H](C2CCCC2)C(=O)N(C)[C@H](C(=O)N2CCOCC2)CC(=O)N(C)[C@@H](CC(C)C)C(=O)N[C@@H]([C@@H](C)CC)C(=O)N(C)CC(=O)N(C)CC(=O)N(CCC)[C@@H](Cc2ccc(C(F)(F)F)cc2)C(=O)N(C)CC(=O)N[C@@H](CCc2ccc(C(F)(F)F)c(Cl)c2)C1=O [PP0267] ([NMeL]I[Sar][Sar][NPrPhe(4-CF3)][Sar][hPhe(3-Cl-4-CF3)][NPrGly][Ac5c][NMeGly(cPent)][NMeD]-Morpholide; lactam N-11)	–	–	–	–	B (a compound having 3 or more and less than 10 is denoted as B)	B (a compound having 3 or more and less than 10 is denoted as B)
